From patent US20230399319A1, “Acylsulfamide Compound and Pharmaceutical Use Therefor” (Japan Tobacco Inc., priority 2019, published 2023)
Where “and” joins values, the source holds several entries; their conditions need not be identical. Equal entries are not always repeated. Where two headings read alike, the source gives them in different places.

Biological target: NLRP3 inflammasome (Homo sapiens (Human), UniProt Q96P20)
Experiment: Evaluation of NLRP3 inflammasome inhibitory activity (inhibition of IL-1β production in THP1-Null cells, LPS/Nigericin)
Conditions: for inhibition at 3 µM: read-out: % inhibition at 3 μM
[1] = inhibition of IL-1β production in THP1-Null cells
[2] = IL-1β production in THP1-Null cells, PMA/LPS primed, Nigericin 7.5 μmol/L

Sequence of NLRP3 inflammasome (Q96P20 whole entry): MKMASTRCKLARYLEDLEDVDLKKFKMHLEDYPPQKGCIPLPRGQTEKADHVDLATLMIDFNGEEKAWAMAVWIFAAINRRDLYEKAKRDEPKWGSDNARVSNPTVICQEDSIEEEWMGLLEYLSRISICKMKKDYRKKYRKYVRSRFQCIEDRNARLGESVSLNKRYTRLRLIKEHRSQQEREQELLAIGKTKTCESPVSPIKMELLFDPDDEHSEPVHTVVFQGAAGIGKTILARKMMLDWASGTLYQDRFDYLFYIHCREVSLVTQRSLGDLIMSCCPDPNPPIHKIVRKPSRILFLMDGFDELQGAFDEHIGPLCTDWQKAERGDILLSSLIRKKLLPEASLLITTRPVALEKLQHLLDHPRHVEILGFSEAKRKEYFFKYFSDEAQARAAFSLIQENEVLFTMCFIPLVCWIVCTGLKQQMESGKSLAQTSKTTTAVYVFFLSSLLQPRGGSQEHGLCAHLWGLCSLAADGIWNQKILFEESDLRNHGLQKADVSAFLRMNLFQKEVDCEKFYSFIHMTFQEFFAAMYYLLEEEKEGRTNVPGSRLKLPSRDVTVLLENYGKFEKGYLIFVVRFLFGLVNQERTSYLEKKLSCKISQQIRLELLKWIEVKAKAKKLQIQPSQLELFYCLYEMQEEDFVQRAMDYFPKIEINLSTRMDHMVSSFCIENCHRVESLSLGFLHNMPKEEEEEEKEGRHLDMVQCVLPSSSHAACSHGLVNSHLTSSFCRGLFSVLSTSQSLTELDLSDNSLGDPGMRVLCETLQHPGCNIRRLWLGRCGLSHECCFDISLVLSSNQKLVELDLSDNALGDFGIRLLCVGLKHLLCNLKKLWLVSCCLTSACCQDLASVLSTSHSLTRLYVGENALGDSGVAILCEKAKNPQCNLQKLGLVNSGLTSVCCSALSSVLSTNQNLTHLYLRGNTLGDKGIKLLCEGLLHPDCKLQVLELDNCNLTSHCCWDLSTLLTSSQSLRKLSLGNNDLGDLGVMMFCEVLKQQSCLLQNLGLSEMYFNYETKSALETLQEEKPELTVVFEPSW

| SMILES | IC50 [1] | IC50 | also measured |
| --- | --- | --- | --- |
| Cc1ccc(C(F)(F)F)cc1Nc1nc(C(=O)NS(=O)(=O)N2CCCN(c3cnccn3)CC2)co1 [Example 2-245] | 73 nM | – | – |
| COC1CCN(S(=O)(=O)NC(=O)c2coc(Nc3cc(C(F)(F)F)ccc3C)n2)CC1 [Example 2-158] | 100 nM | – | – |
| O=C(NS(=O)(=O)N1CCOC2(COC2)C1)c1coc(Nc2c3c(c(Cl)c4c2CCC4)CCC3)n1 [Example 57] | – | – | IC50 [2]: 74 nM |
| CN(C)S(=O)(=O)NC(=O)c1coc(Nc2c3c(cc4c2CCC4)CCC3)n1 [Example 13] | – | – | IC50 [2]: 48 nM |
| Cc1ccc(C(F)(F)F)cc1Nc1nc(C(=O)NS(=O)(=O)N2CCC(O)C2)co1 (racemic) [Example 29] | – | 120 nM | – |
| Cn1cc(N(C2CCOCC2)S(=O)(=O)NC(=O)c2cnc(Nc3c4c(cc5c3CCC5)CCC4)o2)cn1 [Example 18] | – | – | IC50 [2]: 5400 nM |
| C[C@@H]1CCCN1S(=O)(=O)NC(=O)c1coc(Nc2c3c(c(Cl)c4c2CCC4)CCC3)n1 [Example 45] | – | – | IC50 [2]: 200 nM |
| COC1COCCN(S(=O)(=O)NC(=O)c2coc(Nc3cc(C(C)(F)F)ccc3C)n2)C1 (racemic) [Example 2-185] | – | 38 nM | – |
| Cc1ccc(C)c(Nc2nc(C(=O)NS(=O)(=O)N3CCC[C@H]3CN3CCCC3)co2)c1 [Example 2-321] | – | – | inhibition at 3 µM: -11% |
| COC1COCCN(S(=O)(=O)NC(=O)c2coc(Nc3cc(C(F)(F)F)ccc3C)n2)C1 (single isomer, unassigned) [Example 2-219] | 29 nM | – | – |
| CCCS(=O)(=O)N1CCCN(S(=O)(=O)NC(=O)c2coc(Nc3ccccc3C)n2)CC1 [Example 2-269] | 350 nM | – | – |
| COC1CN(S(=O)(=O)NC(=O)c2coc(Nc3cc(C(F)(F)F)ccc3C)n2)C1 [Example 2-057] | 570 nM | – | – |
| COC1COCCN(S(=O)(=O)NC(=O)c2coc(Nc3cc(C)ccc3C(C)C)n2)C1 (racemic) [Example 2-310] | – | 98 nM | – |
| CC(C)n1cc(Nc2nc(C(=O)NS(=O)(=O)N3CCCOCC3)co2)c(C2CCC2)n1 [Example 2-196] | 2700 nM | – | – |
| COCC1CN(S(=O)(=O)NC(=O)c2coc(Nc3cc(C(F)(F)F)ccc3C)n2)CCO1 (stereo not shown) [Example 2-049] | 46 nM | – | – |
| COC1COCCN(S(=O)(=O)NC(=O)c2coc(Nc3cc(C(C)C)ccc3C)n2)C1 (racemic) [Example 2-294] | – | 37 nM | – |
| Cc1ccc(C(F)(F)F)cc1Nc1nc(C(=O)NS(=O)(=O)N2CCNC(=O)CC2)co1 [Example 2-050] | 600 nM | – | – |
| O=C(NS(=O)(=O)N1CC2CC1CO2)c1coc(Nc2c3c(c(Cl)c4c2CCC4)CCC3)n1 (racemic) [Example 56] | – | 46 nM | – |
| Cc1cn(C(C)C)nc1Nc1nc(C(=O)NS(=O)(=O)N(C)C)co1 [Example 2-039] | 500 nM | – | – |
| CS(=O)(=O)N1CCN(S(=O)(=O)NC(=O)c2coc(Nc3c4c(c(Cl)c5c3CCC5)CCC4)n2)CC1 [Example 55] | – | – | IC50 [2]: 160 nM |
| CCC1CN(S(=O)(=O)NC(=O)c2cnc(Nc3c4c(cc5c3CCC5)CCC4)o2)CCO1 (racemic) [Example 16] | – | < 30 nM | – |
| CCc1nn(C(C)C)cc1Nc1nc(C(=O)NS(=O)(=O)N2CCCOCC2)co1 [Example 2-193] | – | – | inhibition at 3 µM: 46% |
| CN(C)S(=O)(=O)NC(=O)c1cnc(Nc2c3c(c(F)c4c2CCC4)CCC3)o1 [Example 26] | – | – | IC50 [2]: 130 nM |
| CCCCC(=O)N1CCCN(S(=O)(=O)NC(=O)c2coc(Nc3cc(C(F)(F)F)ccc3C)n2)CC1 [Example 2-182] | 10 nM | – | – |
| O=C(NS(=O)(=O)N1CCOCC1)c1csc(Nc2c3c(cc4c2CCC4)CCC3)n1 [Example 2-012] | 60 nM and < 30 nM | – | – |
| COCC1CN(S(=O)(=O)NC(=O)c2coc(Nc3cc(C(F)(F)F)ccc3C)n2)CCCO1 (racemic) [Example 2-091] | – | 38 nM | – |

| SMILES | IC50 [1] | IC50 | also measured |
| --- | --- | --- | --- |
| CC(C)c1ccc2c(c1Nc1nc(C(=O)NS(=O)(=O)N(C)C)co1)CCC2 [Example 2-118] | 260 nM | – | – |
| Cc1cnc(C(F)(F)F)cc1Nc1nc(C(=O)NS(=O)(=O)N2CCCOCC2)co1 [Example 2-075] | 4500 nM | – | – |
| COCCOC[C@@H]1CCN(S(=O)(=O)NC(=O)c2coc(Nc3cc(C)c(F)cc3C)n2)CCO1 [Example 3-005, (S)-2-((4-fluoro-2,5-dimethylphenyl)amino)-N-((7-((2-methoxyethoxy)methyl)-1,4-oxazepan-4-yl)sulfonyl)oxazole-4-carboxamide] | – | – | IC50 [2]: 40 nM |
| Cc1ccc(C(F)(F)F)cc1Nc1nc(C(=O)NS(=O)(=O)N2CCCN(c3ccncn3)CC2)co1 [Example 2-214] | 89 nM | – | – |
| CC(C)c1cn(C(C)C)nc1Nc1nc(C(=O)NS(=O)(=O)N2CCCOCC2)co1 [Example 2-116] | 85 nM | – | – |
| O=C(NS(=O)(=O)N1CCC(O)C1)c1coc(Nc2c3c(c(F)c4c2CCC4)CCC3)n1 (racemic) [Example 52] | – | 32 nM | – |
| O=C(NS(=O)(=O)N1C[C@H]2COC[C@H]2C1)c1coc(Nc2c3c(c(F)c4c2CCC4)CCC3)n1 [Example 60] | – | – | IC50 [2]: 130 nM |
| CC1COCCN1S(=O)(=O)NC(=O)c1coc(Nc2c3c(cc4c2CCC4)CCC3)n1 (racemic) [Example 25] | – | 51 nM | – |
| CO[C@@H]1CCN(S(=O)(=O)NC(=O)c2coc(Nc3c4c(c(Cl)c5c3CCC5)CCC4)n2)C1 [Example 36] | – | – | IC50 [2]: 92 nM |
| CCOCC1CCN(S(=O)(=O)NC(=O)c2coc(Nc3cc(C(F)F)ccc3C)n2)CCO1 (stereo not shown) [Example 2-332] | 22 nM | – | – |
| COCCCc1cc(C)c(Nc2nc(C(=O)NS(=O)(=O)N(C)C)co2)cc1C(C)C [Example 2-238] | – | – | inhibition at 3 µM: 11% |
| COC1CN(S(=O)(=O)NC(=O)c2cnc(Nc3c4c(cc5c3CCC5)CCC4)o2)C1 [Example 17] | – | – | IC50 [2]: 830 nM |
| CC(C)c1cnc(C(F)(F)F)nc1Nc1nc(C(=O)NS(=O)(=O)N2CCCOCC2)co1 [Example 2-144] | – | – | inhibition at 3 µM: 23% |
| CN(C)C1CCN(S(=O)(=O)NC(=O)c2coc(Nc3c4c(c(F)c5c3CCC5)CCC4)n2)C1 (racemic) [Example 74] | – | 180 nM | – |
| Cc1ncc(C(F)(F)F)cc1Nc1nc(C(=O)NS(=O)(=O)N2CCCOCC2)co1 [Example 2-104] | 1800 nM | – | – |
| CCS(=O)(=O)N1CCN(S(=O)(=O)NC(=O)c2coc(Nc3cc(C)ccc3C)n2)CC(OC)C1 (racemic) [Example 2-252] | – | 190 nM | – |
| Cc1ccc(C(F)(F)F)cc1Nc1nc(C(=O)NS(=O)(=O)N2CCOCC(C(=O)N(C)C)C2)co1 (racemic) [Example 2-143] | – | 86 nM | – |
| CC(=O)N1CCN(S(=O)(=O)NC(=O)c2coc(Nc3c4c(c(Cl)c5c3CCC5)CCC4)n2)CC1 [Example 54] | – | – | IC50 [2]: 170 nM |
| Cc1ccc(C(F)(F)F)cc1Nc1nc(C(=O)NS(=O)(=O)N2CC3CCC(C2)O3)co1 [Example 77] | – | – | IC50 [2]: 56 nM |
| COC(=O)CC1COCCN1S(=O)(=O)NC(=O)c1coc(Nc2c3c(c(Cl)c4c2CCC4)CCC3)n1 (racemic) [Example 73] | – | 160 nM | – |
| Cc1ccc2c(c1Nc1nc(C(=O)NS(=O)(=O)N3CCC(O)C3)co1)CCC2 (racemic) [Example 30] | – | 190 nM | – |
| Cc1cc(Nc2nc(C(=O)NS(=O)(=O)N3CCOC(COC(C)C)CC3)co2)c(C)cc1F (stereo not shown) [Example 3-003] | – | – | IC50 [2]: 21 nM |
| CC(C)c1ccc2c(c1Nc1nc(C(=O)NS(=O)(=O)N3CCCOCC3)co1)CCC2 [Example 2-119] | 96 nM | – | – |
| Cc1ccc2c(c1Nc1nc(C(=O)NS(=O)(=O)N3CCCOCC3)co1)CCC2 [Example 2-097] | 150 nM | – | – |
| COC1CCCN(S(=O)(=O)NC(=O)c2coc(Nc3cc(C(F)(F)F)ccc3C)n2)C1 (racemic) [Example 2-159] | – | 61 nM | – |

Further lines, with some results ahead:

| IC50 [1] | IC50 | SMILES | also measured |
| --- | --- | --- | --- |
| 16 nM | – | Cc1ccnc(N2CCCN(S(=O)(=O)NC(=O)c3coc(Nc4cc(C(F)(F)F)ccc4C)n3)CC2)n1 [Example 2-211] | – |
| – | 36 nM | COC1CN(S(=O)(=O)CCCF)CCN(S(=O)(=O)NC(=O)c2coc(Nc3cc(C(F)(F)F)ccc3C)n2)C1 (racemic) [Example 2-205] | – |
| – | 73 nM | COCC1CN(S(=O)(=O)NC(=O)c2coc(Nc3c4c(c(Cl)c5c3CCC5)CCC4)n2)CCO1 (racemic) [Example 38] | – |
| 34 nM | – | CCCS(=O)(=O)N1CCCN(S(=O)(=O)NC(=O)c2coc(Nc3cc(Br)ccc3C)n2)CC1 [Example 2-292] | – |
| 120 nM | – | Cc1ccc(C(F)(F)F)nc1Nc1nc(C(=O)NS(=O)(=O)N2CCCOCC2)co1 [Example 2-088] | – |
| – | 140 nM | CC(C)c1cn(C(C)C)nc1Nc1nc(C(=O)NS(=O)(=O)N2CCOCCC2C)co1 (racemic) [Example 2-184] | – |
| 160 nM | – | Cc1ccc(C)c(Nc2nc(C(=O)NS(=O)(=O)N3CCCN(c4ncccn4)CC3)co2)c1 [Example 2-275] | – |
| – | 67 nM | Cc1ccc(C(F)(F)F)cc1Nc1nc(C(=O)NS(=O)(=O)N2CCCN(S(=O)(=O)C3CCOC3)CC2)co1 (racemic) [Example 2-220] | – |
| – | 72 nM | CCC1COCCN1S(=O)(=O)NC(=O)c1cnc(Nc2c3c(cc4c2CCC4)CCC3)o1 (racemic) [Example 11] | – |
| 270 nM | – | Cc1ccc(C2(C#N)CC2)cc1Nc1nc(C(=O)NS(=O)(=O)N(C)C)co1 [Example 2-094] | – |
| 30 nM | – | Cc1ccc(C(F)F)cc1Nc1nc(C(=O)NS(=O)(=O)N2CCOC(COC(F)F)CC2)co1 (stereo not shown) [Example 2-328] | – |
| – | 39 nM | Cc1ccc(C(F)(F)F)cc1Nc1nc(C(=O)NS(=O)(=O)N2CCCC(O)CC2)co1 (racemic) [Example 2-156] | – |
| – | 38 nM | Cc1ccc(C(F)(F)F)cc1Nc1nc(C(=O)NS(=O)(=O)N2CCCC(C(=O)N(C)C)CC2)co1 (racemic) [Example 2-157] | – |
| 29 nM | – | COCC1CCN(S(=O)(=O)NC(=O)c2coc(Nc3cc(C(F)F)ccc3C)n2)CCO1 (stereo not shown) [Example 2-327] | – |
| 25 nM | – | CCOCC1CCN(S(=O)(=O)NC(=O)c2coc(Nc3cc(C(C)C)ccc3C)n2)CCO1 (stereo not shown) [Example 2-325] | – |
| 27 nM | – | CCCS(=O)(=O)N1CCCN(S(=O)(=O)NC(=O)c2coc(Nc3cc(C(F)F)ccc3C(C)C)n2)CC1 [Example 2-224] | – |
| 17 nM | – | Cc1ccc(C(F)(F)F)cc1Nc1nc(C(=O)NS(=O)(=O)N2CCOC(COC(F)F)CC2)co1 (stereo not shown) [Example 2-324] | – |
| 71 nM | – | COCCOCC1CCN(S(=O)(=O)NC(=O)c2coc(Nc3cc(C)ccc3C)n2)CCO1 (stereo not shown) [Example 2-345] | – |
| 250 nM | – | Cc1ccc(C(C)C)cc1Nc1nc(C(=O)NS(=O)(=O)N2CCOCC2(C)C)co1 [Example 2-098] | – |
